Results on eleven compounds are retold here after PubChem BioAssay (NCI).

Each structure is given as a SMILES string. Values joined by “and” are separate entries in the source; they are usually repeats but may differ in a detail not shown here. Identical values can stand only once.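 Grown in 96-well plates, cells were treated for 48 hours with each compound at five concentrations. Insufficient inhibition: endpoint recorded as highest concentration tested. Here, GI50 denotes the concentration required for 50% inhibition of growth. TGI marks complete inhibition of growth.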 Where a SMILES comes first, the peptide text is derived from it. [ ]: non-standard residue; d: D form. Phe(F5) = N[CH](Cc1c(F)c(F)c(F)c(F)c1F)C(=O)O

Assay in all cases: DTP human tumour cell line panel, 48 h
Test [1] relates to UO-31 renal.
The subject of test [2] is DMS 273 small cell lung.
The subject of test [3] is HOP-18 NSCLC.
Test [4] concerns SK-OV-3 ovarian.
Test [5] deals with NCI-H23 lung.
The test system of test [6] is U251 CNS.
Test [7] concerns IGROV1 ovarian.
Test [8] relates to CCRF-CEM leukemia.
In test [9] the test system is ACHN renal.
Test [10] concerns BT-549 breast.

One may read the GI50 as the concentration that inhibits growth by half. A word on the TGI: it is the concentration at which net growth stops. Turning to `CC(=O)[O][Pb]([O]C(C)=O)([c]1ccccc1)[c]1ccccc1`, the GI50 in [1] is over 100 µM; in [2], 2.88 µM; in [3], 6.5 µM; in [4], 28.1 µM; in test [5], 2.35 µM; in test [6] it was 4.69 µM. The GI50 is 5.98 µM in test [7], 16.2 µM in [8] and over 100 µM in [9]. The TGI in test [1] is over 100 µM; in test [2], over 100 µM; in [3], over 100 µM; in test [4], over 100 µM; in test [5], 13.4 µM; in test [6] it was 10 µM. For the same compound, the concentration for total growth inhibition (TGI) in [7], in test [8] and in test [9] was over 100 µM in each case.
Consider `CN(C)c1ccc2c(NCCCCCCNc3ccnc4cc(N(C)C)ccc34)ccnc2c1`, for which the TGI in test [1] was over 100 µM; in [2], 21.3 µM; in [4], over 100 µM; in test [5] it was 27.2 µM; in [6], 24.3 µM; in test [8], over 100 µM. In test [9], this compound yielded a concentration for total growth inhibition (TGI) of 33.6 µM.
Consider `COC(=O)C(CC(C)C)NC(=O)C(Cc1cnc[nH]1)NC(=O)CNC(=O)C(NC(=O)C(C)NC(=O)C(Cc1c[nH]c2ccccc12)NC(=O)C(CCC(=O)O)NC(=O)C(N)Cc1c(F)c(F)c(F)c(F)c1F)C(C)C` (stereo not given) (H-[Phe(F5)]EWAVGHL-OMe; configuration not given here), for which the GI50 was 0.991 µM in test [1]; over 100 µM in test [5]; over 100 µM in test [6]; over 100 µM in test [7]; over 100 µM in test [8]; over 100 µM in [9]. The TGI in test [1] is > 12.5 µM and 56 µM; in test [2], over 100 µM; in test [3], over 100 µM; in [4], over 12.5 µM; in test [5] it was over 100 µM; in [6] it was over 100 µM. The TGI in test [7], in test [8] and in [9] was over 100 µM in each case.
Turning to `C=C1C(=O)O[C@H]2C[C@@H](C)[C@@H]3CC(=O)OC[C@@]3(C)CC12` (stereo not given in full), the TGI in [1] was over 100 µM; in test [2], over 100 µM; in test [3], over 100 µM; in test [4], over 100 µM; in [5] it was 62.5 µM; in [6] it was over 100 µM. The concentration for total growth inhibition (TGI) in test [7] was over 100 µM; in test [8] it was 55.6 µM; in test [9] it was 60 µM.
Regarding `CC(=O)/C(=C\c1ccco1)C(=O)Nc1ccccc1`, the TGI in test [1], in [3], in [4], in test [5], in test [6] and in [7] was over 100 µM in each case. Further, the TGI in [8] and in test [9] was over 100 µM throughout.
`COC12C=CC(CC1)c1c(O)ccc(O)c12` (stereo not given): the TGI in test [1] was over 100 µM; in test [2], over 87 µM; in [3], over 100 µM; in [4] it was over 100 µM; in test [5], over 100 µM; in [6] it was over 100 µM. For the same compound, the TGI in test [7] was over 100 µM; in test [8], 65.1 µM; in [9], over 61.4 µM.
`CC1CC2C(=O)NC(=O)C2c2[nH]c3ccccc3c21` (stereo not given): the TGI in [1], in test [2], in [4], in [5], in test [6] and in test [7] was over 100 µM in each case. Further, the TGI in [8] and in [9] was over 100 µM in each case.
Turning to `COc1cccc(C2=C(c3cn(C)c4ccccc34)C(=O)NC2=O)c1`, the GI50 was 10.8 µM in [1]; 12.7 µM in [4]; 13.9 µM in test [5]; 10.9 µM in test [6]; 21.8 µM in test [7]; 9.01 µM in test [8]. Also, the results for the GI50 in [9] and in test [10] were 7.76 µM and 11.9 µM, respectively. Further, the total growth inhibition concentration (TGI) in [1], in [4], in test [5], in test [6], in test [7] and in [8] was over 25 µM each time. Besides, the total growth inhibition concentration (TGI) in test [9] and in test [10] was over 25 µM each time.
With `O=C1C/C(=C/c2ccc(/C=C3/CC(=O)N(c4cccc(Br)c4)C3=O)cc2)C(=O)N1c1cccc(Br)c1`, the concentration for total growth inhibition (TGI) in [1], in test [2], in test [3], in test [4], in [5] and in test [6] was over 100 µM throughout. The total growth inhibition concentration (TGI) in test [7], in test [8] and in [9] was over 100 µM each time.
Take `COC(=O)[C@@H]1CSC(=S)N1C(=O)C[C@H]1CC=CC[C@H]1CC(=O)Sc1ccccc1`: the TGI is 26.8 µM in [1]; 44.1 µM in test [2]; 61.1 µM in [3]; 50 µM in test [4]; 46.5 µM in test [5]; 32.4 µM in test [6]. Also, the TGI came out at 39.7 µM in test [7], 14.9 µM in [8] and 32.1 µM in test [9].
In the case of `O=C(CCn1[nH]c(=O)c(Cl)c(Cl)c1=O)NOCCCc1ccccc1`, the TGI in test [1], in test [2], in test [3], in test [5], in test [7] and in test [8] was over 100 µM in each case. Also, the concentration for total growth inhibition (TGI) in [9] was over 100 µM.
